Reference: patent US20240366624A1, “METHODS AND COMPOSITIONS FOR TREATING THROMBOTIC DISEASE” (Washington University, priority 2023, published 2024)

Legend:
human platelets = experiment: Flow cytometry of P-selectin exposure and αIIbβ3 integrin activation, human platelets; type: cell-based; settings: 3 to 10 μM, human platelets, thrombin or CRP
Excerpt: FIG. 18(A-R) is an exemplary embodiment of novel small-molecule inhibitors recapitulating the defect in Ero1α (endoplasmic reticulum oxidoreductase 1a)-null platelets in accordance with the present disclosure. FIG. 18A: The structure of B12 and its inhibitory effect on ERO1α activity. FIG. 18(B-E): The inhibitory effect of B12 on P-selectin exposure and αIIbβ3 integrin activation in (FIG. 18B and FIG. 18C) mouse and (FIG. 18D and FIG. 18E) human platelets. FIG. 18F: The structure of B12-5 and its inhibitory effect on ERO1α activity. FIG. 18G: A docking model of B12-5-ERO1α (3AHQ) and flavin adenine dinucleotide (FAD)-ERO1α complex. There are pi-sulfur interactions of the phenothiazine head group (B112-5) or a tricyclic ring (FAD) with Met389 and Cys397. Also, there are H bond interactions between the tail/alkyl group and His255, Asn259, and Arg287. […] After incubation with a different concentration of B12-5, the specific interaction between B12-5 and ERO1α was measured by subtracting the nonspecific binding. The KD value was calculated from the Kon and Koff values. […] P values determined by ANOVA and Dunnett test (FIG. 18(B-E), FIG. 18(1-L), and FIG. 18(O-R) [for B12-5]) or Student t test (FIG. 18M, FIG. 18N, and FIG. 18(O-R) [for BAPTA (1,2-bis(o-aminophenoxy)ethane-N,N,N′,N′-tetraacetic acid)]). […]

WT mice = experiment: FeCl3-induced carotid arterial thrombosis; type: in vivo, mouse
Procedure: FIG. […]) is an exemplary embodiment of B12-5 having an antithrombotic effect without prolonging tail bleeding times in mice in accordance with the present disclosure. FIG. […]): Ex vivo effects of B12-5. Wild type (WT; […] One hour later, blood was drawn, followed by isolating platelets. P-selectin exposure (FIG. 19A) and αIIbβ3 integrin activation (FIG. 19B) were assessed in flow cytometry. FIG. 19C: Platelet aggregation was measured after treatment with 0.025 U/mL thrombin. The data represent the mean±SD (n=4). FIG. 19D: The plasma levels of B12-5 were analyzed by liquid chromatography-tandem mass spectrometry (LC-MS/MS) after intravenous injection of the compound (5 μg/g BW) into WT mice and quantified by comparison with a standard curve of B12-5 (mean±SD, n=3). FIG. 19E and FIG. 19F: After laser-induced cremaster arteriolar injury, intravital microscopy was conducted with WT mice pretreated with intravenous injection of saline, eptifibatide (5 μg/g BW), vehicle, or B12-5 (5 μg/g BW). The median integrated fluorescence intensities of anti-CD42c (F platelet) and anti-fibrin (F fibrin) antibodies (n=37-42 arterioles in 6 mice per group). Quantification of the antibody signal at a different time point after laser injury. FIG. 19G: Comparison of B12-5 (5 μg/g BW) with eptifibatide (5 μg/g BW) and their respective controls in inhibiting FeCl3-induced carotid artery thrombosis in WT mice. FIG. 19H and FIG. 19I: WT mice were treated with intravenous injection of vehicle control, eptifibatide (5 μg/g BW), or B12-5 (5 μg/g BW). Thirty minutes later, tail bleeding times and Hb contents were measured after amputation of the tail tip. […] Twenty-three hours later, neurological deficits were assessed by the Bederson score and grip test, and infarct volume was measured as described in Methods. […] Twenty-three hours later, the neurological deficit and infarct volume were measured as described above. […] P values determined by unpaired Student t test (FIG. […]), FIG. 19K, and FIG. 19O) or Mann-Whitney U test (FIG. 19(E-1), FIG. 19L, FIG. 19M, FIG. 19P, and FIG. 19Q). […]

O=C(CSc1nc(O)cc(O)n1)N1c2ccccc2Sc2ccccc21 [B12-5]
P-selectin exposure and αIIbβ3 activation (human platelets): significantly reduced
time to occlusion (WT mice; 5 μg/g BW, vs vehicle control): significantly prolonged
platelet thrombus formation (WT mice; iv 5 microg/g mouse): significantly reduced
